Results from patent US20140024527A1, “HERBICIDAL PYRAZINONES” (E I DU DE NEMOURS AND COMPANY, priority 2011, published 2014).

What was measured:
Assay type in all cases: in vivo
[1] = system: pigweed (Amaranthus retroflexus); experiment: Test A preemergence; settings: 0 to 100 scale, 0 no effect, 100 complete control, approx. 10 days
In short: (§1)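 Scores reflect visual plant response on a scale from 0 (no effect) to 100 (complete control) after approximately 10 greenhouse days. Pre- and postemergence sprays of solvent/surfactant-formulated chemical were applied at the same time, the latter at the one- to two-leaf stage.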

[2] = system: giant foxtail (Setaria faberii); experiment: Test A preemergence; settings: 0 to 100 scale, 0 no effect, 100 complete control, approx. 10 days
In short: as §1

[3] = system: barnyardgrass (Echinochloa crus-galli); experiment: Test A preemergence; settings: 0 to 100 scale, 0 no effect, 100 complete control, approx. 10 days
In short: as §1

[4] = system: velvetleaf (Abutilon theophrasti); experiment: Test A preemergence; settings: 0 to 100 scale, 0 no effect, 100 complete control, approx. 10 days
In short: as §1

[5] = system: large crabgrass (Digitaria sanguinalis); experiment: Test A preemergence; settings: 0 to 100 scale, 0 no effect, 100 complete control, approx. 10 days
In short: as §1

[6] = system: corn (Zea mays); experiment: Test A preemergence; settings: 0 to 100 scale, 0 no effect, 100 complete control, approx. 10 days
In short: as §1

[7] = system: morningglory (Ipomoea spp.); experiment: Test A preemergence; settings: 0 to 100 scale, 0 no effect, 100 complete control, approx. 10 days
In short: as §1

[8] = system: wheat (Triticum aestivum); experiment: Test A preemergence; settings: 0 to 100 scale, 0 no effect, 100 complete control, approx. 10 days
In short: as §1

[9] = system: ducksalad (Heteranthera limosa); experiment: Test B flooded paddy test; settings: Flood, scale 0 to 100
In short: (§2)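 Paddy-water application to 2-leaf plants in pots held under 3 cm of flooding; response is a 0–100 visual control rating against controls after 13 to 15 days, and a dash marks a missing result.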

[10] = system: barnyardgrass (Echinochloa crus-galli); experiment: Test B flooded paddy test; settings: Flood
In short: as §2

[11] = system: rice (Oryza sativa); experiment: Test B flooded paddy test; settings: Flood, scale 0 to 100
In short: as §2

[12] = system: umbrella sedge (Cyperus difformis); experiment: Test B flooded paddy test; settings: Flood, scale 0 to 100
In short: as §2

[13] = system: pigweed (Amaranthus retroflexus); experiment: Test A postemergence; settings: 0 to 100 scale, 0 no effect, 100 complete control, approx. 10 days
In short: as §1

[14] = system: giant foxtail (Setaria faberii); experiment: Test A postemergence; settings: 0 to 100 scale, 0 no effect, 100 complete control, approx. 10 days
In short: as §1

[15] = system: barnyardgrass (Echinochloa crus-galli); experiment: Test A postemergence; settings: 0 to 100 scale, 0 no effect, 100 complete control, approx. 10 days
In short: as §1

[16] = system: velvetleaf (Abutilon theophrasti); experiment: Test A postemergence; settings: 0 to 100 scale, 0 no effect, 100 complete control, approx. 10 days
In short: as §1

[17] = system: large crabgrass (Digitaria sanguinalis); experiment: Test A postemergence; settings: 0 to 100 scale, 0 no effect, 100 complete control, approx. 10 days
In short: as §1

[18] = system: corn (Zea mays); experiment: Test A postemergence; settings: 0 to 100 scale, 0 no effect, 100 complete control, approx. 10 days
In short: as §1

[19] = system: morningglory (Ipomoea spp.); experiment: Test A postemergence; settings: 0 to 100 scale, 0 no effect, 100 complete control, approx. 10 days
In short: as §1

[20] = system: wheat (Triticum aestivum); experiment: Test A postemergence; settings: 0 to 100 scale, 0 no effect, 100 complete control, approx. 10 days
In short: as §1

[21] = 250 g ai/ha, scale 0 to 100 (0 no effect, 100 complete control)

Which results are given for COCCn1c(-c2cc(F)cc(F)c2)cnc(C(=O)C2=C(O)CCCC2=O)c1=O [Compound 5, 6-(3,5-difluorophenyl)-3-[(2-hydroxy-6-oxo-1-cyclohexen-1-yl)carbonyl]-1-(2-methoxyethyl)-2(1H)-pyrazinone]?
Plant response rating, Pigweed ([1]; 31 g ai/ha): 40; Plant response rating, Pigweed ([1]; 125 g ai/ha): 90; Plant response rating, Pigweed ([1]; 500 g ai/ha): 90; Plant response rating, Foxtail, Giant ([2]; 31 g ai/ha): 20; Plant response rating, Foxtail, Giant ([2]; 125 g ai/ha): 70; Plant response rating, Foxtail, Giant ([2]; 500 g ai/ha): 80; Plant response rating, Barnyardgrass ([3]; 31 g ai/ha): 0; Plant response rating, Barnyardgrass ([3]; 125 g ai/ha): 50; Plant response rating, Barnyardgrass ([3]; 500 g ai/ha): 80; Plant response rating, Velvetleaf ([4]; 31 g ai/ha): 30; Plant response rating, Velvetleaf ([4]; 125 g ai/ha): 70; Plant response rating, Velvetleaf ([4]; 500 g ai/ha): 80; Plant response rating, Crabgrass, Large ([5]; 31 g ai/ha): 20; Plant response rating, Crabgrass, Large ([5]; 125 g ai/ha): 100; Plant response rating, Crabgrass, Large ([5]; 500 g ai/ha): 100; Plant response rating, Corn ([6]; 31 g ai/ha): 0; Plant response rating, Corn ([6]; 125 g ai/ha): 0; Plant response rating, Corn ([6]; 500 g ai/ha): 0; Plant response rating, Morningglory ([7]; 31 g ai/ha): 0; Plant response rating, Morningglory ([7]; 125 g ai/ha): 40; Plant response rating, Morningglory ([7]; 500 g ai/ha): 80; Plant response rating, Wheat ([8]; 31 g ai/ha): 0; Plant response rating, Wheat ([8]; 125 g ai/ha): 0; Plant response rating, Wheat ([8]; 500 g ai/ha): 0; Plant response rating, Ducksalad ([9]; 31 g ai/ha): 0; Plant response rating, Ducksalad ([9]; 62 g ai/ha): 40; Plant response rating, Ducksalad ([9]; 125 g ai/ha): 60; Plant response rating, Ducksalad ([9]; 250 g ai/ha): 90; Plant response rating, Barnyardgrass ([10]; 31 g ai/ha, scale 0 to 100): 0; Plant response rating, Barnyardgrass ([10]; 62 g ai/ha, scale 0 to 100): 0; Plant response rating, Barnyardgrass ([10]; 125 g ai/ha, scale 0 to 100): 25; Plant response rating, Barnyardgrass [10, 21]: 80; Plant response rating, Rice ([11]; 31 g ai/ha): 0; Plant response rating, Rice ([11]; 62 g ai/ha): 0; Plant response rating, Rice ([11]; 125 g ai/ha): 10; Plant response rating, Rice ([11]; 250 g ai/ha): 20; Plant response rating, Sedge, Umbrella ([12]; 31 g ai/ha): 50; Plant response rating, Sedge, Umbrella ([12]; 62 g ai/ha): 70; Plant response rating, Sedge, Umbrella ([12]; 125 g ai/ha): 90; Plant response rating, Sedge, Umbrella ([12]; 250 g ai/ha): 100; Plant response rating, Pigweed ([13]; 31 g ai/ha): 80; Plant response rating, Pigweed ([13]; 125 g ai/ha): 100; Plant response rating, Pigweed ([13]; 500 g ai/ha): 100; Plant response rating, Foxtail, Giant ([14]; 31 g ai/ha): 30; Plant response rating, Foxtail, Giant ([14]; 125 g ai/ha): 60; Plant response rating, Foxtail, Giant ([14]; 500 g ai/ha): 80; Plant response rating, Barnyardgrass ([15]; 31 g ai/ha): 50; Plant response rating, Barnyardgrass ([15]; 125 g ai/ha): 90; Plant response rating, Barnyardgrass ([15]; 500 g ai/ha): 90; Plant response rating, Velvetleaf ([16]; 31 g ai/ha): 70; Plant response rating, Velvetleaf ([16]; 125 g ai/ha): 80; Plant response rating, Velvetleaf ([16]; 500 g ai/ha): 100; Plant response rating, Crabgrass, Large ([17]; 31 g ai/ha): 70; Plant response rating, Crabgrass, Large ([17]; 125 g ai/ha): 90; Plant response rating, Crabgrass, Large ([17]; 500 g ai/ha): 90; Plant response rating, Corn ([18]; 31 g ai/ha): 10; Plant response rating, Corn ([18]; 125 g ai/ha): 50; Plant response rating, Corn ([18]; 500 g ai/ha): 60; Plant response rating, Morningglory ([19]; 31 g ai/ha): 80; Plant response rating, Morningglory ([19]; 125 g ai/ha): 90; Plant response rating, Morningglory ([19]; 500 g ai/ha): 90; Plant response rating, Wheat ([20]; 31 g ai/ha): 0; Plant response rating, Wheat ([20]; 125 g ai/ha): 30; Plant response rating, Wheat ([20]; 500 g ai/ha): 30

Which results are given for O=C1CCCC(O)=C1C(=O)c1nc(Cl)c(-c2cccc(F)c2)n(C2CCCCC2)c1=O [Compound 2, 5-chloro-1-cyclohexyl-6-(3-fluorophenyl)-3-[(2-hydroxy-6-oxo-1-cyclohexen-1-yl)carbonyl]-2(1H)pyrazinone]?
Plant response rating, Pigweed ([1]; 125 g ai/ha): 0; Plant response rating, Pigweed ([1]; 500 g ai/ha): 80; Plant response rating, Foxtail, Giant ([2]; 125 g ai/ha): 0; Plant response rating, Foxtail, Giant ([2]; 500 g ai/ha): 30; Plant response rating, Barnyardgrass ([3]; 125 g ai/ha): 0; Plant response rating, Barnyardgrass ([3]; 500 g ai/ha): 40; Plant response rating, Velvetleaf ([4]; 125 g ai/ha): 0; Plant response rating, Velvetleaf ([4]; 500 g ai/ha): 90; Plant response rating, Crabgrass, Large ([5]; 125 g ai/ha): 0; Plant response rating, Crabgrass, Large ([5]; 500 g ai/ha): 50; Plant response rating, Corn ([6]; 125 g ai/ha): 0; Plant response rating, Corn ([6]; 500 g ai/ha): 0; Plant response rating, Morningglory ([7]; 125 g ai/ha): 0; Plant response rating, Morningglory ([7]; 500 g ai/ha): 80; Plant response rating, Wheat ([8]; 125 g ai/ha): 0; Plant response rating, Wheat ([8]; 500 g ai/ha): 0; Plant response rating, Ducksalad ([9]; 31 g ai/ha): 0; Plant response rating, Ducksalad ([9]; 62 g ai/ha): 0; Plant response rating, Ducksalad ([9]; 125 g ai/ha): 60; Plant response rating, Ducksalad ([9]; 250 g ai/ha): 80; Plant response rating, Barnyardgrass ([10]; 31 g ai/ha, scale 0 to 100): 0; Plant response rating, Barnyardgrass ([10]; 62 g ai/ha, scale 0 to 100): 0; Plant response rating, Barnyardgrass ([10]; 125 g ai/ha, scale 0 to 100): 0; Plant response rating, Barnyardgrass [10, 21]: 0; Plant response rating, Rice ([11]; 31 g ai/ha): 0; Plant response rating, Rice ([11]; 62 g ai/ha): 0; Plant response rating, Rice ([11]; 125 g ai/ha): 0; Plant response rating, Rice ([11]; 250 g ai/ha): 0; Plant response rating, Sedge, Umbrella ([12]; 31 g ai/ha): 0; Plant response rating, Sedge, Umbrella ([12]; 62 g ai/ha): 0; Plant response rating, Sedge, Umbrella ([12]; 125 g ai/ha): 20; Plant response rating, Sedge, Umbrella ([12]; 250 g ai/ha): 60; Plant response rating, Pigweed ([13]; 125 g ai/ha): 30; Plant response rating, Pigweed ([13]; 500 g ai/ha): 70; Plant response rating, Foxtail, Giant ([14]; 125 g ai/ha): 0; Plant response rating, Foxtail, Giant ([14]; 500 g ai/ha): 20; Plant response rating, Barnyardgrass ([15]; 125 g ai/ha): 0; Plant response rating, Barnyardgrass ([15]; 500 g ai/ha): 30; Plant response rating, Velvetleaf ([16]; 125 g ai/ha): 70; Plant response rating, Velvetleaf ([16]; 500 g ai/ha): 100; Plant response rating, Crabgrass, Large ([17]; 125 g ai/ha): 0; Plant response rating, Crabgrass, Large ([17]; 500 g ai/ha): 30; Plant response rating, Corn ([18]; 125 g ai/ha): 0; Plant response rating, Corn ([18]; 500 g ai/ha): 0; Plant response rating, Morningglory ([19]; 125 g ai/ha): 60; Plant response rating, Morningglory ([19]; 500 g ai/ha): 90; Plant response rating, Wheat ([20]; 125 g ai/ha): 0; Plant response rating, Wheat ([20]; 500 g ai/ha): 0
